Results as given in patent US20210198277A1, “AMINE-SUBSTITUTED ARYL OR HETEROARYL COMPOUNDS” (Epizyme, Inc., priority 2016, published 2021).
Read-outs that look alike come from different tables or passages of the source.

Tests used:
EHMT1 = target: T1, EHMT1 (Homo sapiens, UniProt Q9H9B1); assay: EHMT1 enzyme assay on peptide substrate (EHMT1 PEP); type: biochemical
T1 sequence (Q9H9B1 1-1298): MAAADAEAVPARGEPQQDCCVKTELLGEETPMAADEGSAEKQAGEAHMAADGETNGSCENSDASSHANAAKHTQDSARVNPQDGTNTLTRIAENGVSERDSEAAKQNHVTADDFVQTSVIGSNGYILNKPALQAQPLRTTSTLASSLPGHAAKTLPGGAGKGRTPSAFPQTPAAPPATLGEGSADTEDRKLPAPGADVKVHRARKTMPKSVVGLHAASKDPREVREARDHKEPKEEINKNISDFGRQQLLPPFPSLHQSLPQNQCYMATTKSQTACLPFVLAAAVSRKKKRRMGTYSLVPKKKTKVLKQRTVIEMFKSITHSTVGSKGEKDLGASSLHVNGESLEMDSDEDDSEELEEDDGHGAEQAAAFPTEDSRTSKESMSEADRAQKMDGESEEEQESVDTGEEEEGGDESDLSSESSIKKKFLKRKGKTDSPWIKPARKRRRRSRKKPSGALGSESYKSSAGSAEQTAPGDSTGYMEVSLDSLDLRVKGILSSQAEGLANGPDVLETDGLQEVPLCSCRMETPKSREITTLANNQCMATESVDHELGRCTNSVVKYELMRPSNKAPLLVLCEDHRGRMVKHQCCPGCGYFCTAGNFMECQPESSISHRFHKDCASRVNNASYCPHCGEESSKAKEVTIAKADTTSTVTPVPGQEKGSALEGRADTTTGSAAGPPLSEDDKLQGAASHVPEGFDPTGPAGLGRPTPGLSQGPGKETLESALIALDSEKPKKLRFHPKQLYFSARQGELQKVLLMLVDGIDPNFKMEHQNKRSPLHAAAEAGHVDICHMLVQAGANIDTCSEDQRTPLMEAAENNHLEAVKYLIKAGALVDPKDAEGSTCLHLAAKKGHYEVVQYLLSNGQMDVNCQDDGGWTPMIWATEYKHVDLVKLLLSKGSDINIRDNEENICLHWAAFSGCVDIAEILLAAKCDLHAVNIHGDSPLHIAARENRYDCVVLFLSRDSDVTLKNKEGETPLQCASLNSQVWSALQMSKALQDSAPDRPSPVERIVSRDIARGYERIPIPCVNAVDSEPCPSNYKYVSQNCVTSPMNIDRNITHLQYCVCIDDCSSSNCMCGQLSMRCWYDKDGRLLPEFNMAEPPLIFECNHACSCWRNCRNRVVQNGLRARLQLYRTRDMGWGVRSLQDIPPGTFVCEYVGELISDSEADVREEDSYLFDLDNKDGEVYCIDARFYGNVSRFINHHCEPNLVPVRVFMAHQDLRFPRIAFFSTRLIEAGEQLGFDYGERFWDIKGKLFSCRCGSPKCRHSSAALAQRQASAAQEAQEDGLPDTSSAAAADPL

human EHMT2 913-1193 = target: T2, human EHMT2 913-1193 (Homo sapiens, UniProt Q96KQ7); assay: EHMT2 enzyme assay on histone peptide substrate (EHMT2 PEP); type: biochemical
T2 construct: recombinant purified human EHMT2 913-1193, Viva; purchased Viva
T2 sequence (Q96KQ7 913-1193): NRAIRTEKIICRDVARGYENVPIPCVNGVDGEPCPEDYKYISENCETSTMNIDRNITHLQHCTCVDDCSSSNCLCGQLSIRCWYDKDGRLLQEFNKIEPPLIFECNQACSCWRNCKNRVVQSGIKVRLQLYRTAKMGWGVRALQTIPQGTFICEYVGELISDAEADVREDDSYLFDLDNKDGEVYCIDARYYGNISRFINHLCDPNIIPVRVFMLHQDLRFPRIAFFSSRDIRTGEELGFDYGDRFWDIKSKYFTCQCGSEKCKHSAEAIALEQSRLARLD
Procedure, shortened: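 Radiometric methyltransferase assay: 0.031 nM EHMT2 913-1193 preincubated 30 min with compound (10-point 3-fold series, top final 50 μM, 2% DMSO) in 20 mM Bicine pH 7.5, 1 mM TCEP. Biotinylated histone peptide methylated with ^3H-SAM for 60 min at room temperature, quenched with unlabeled SAM, captured on streptavidin Flashplates and counted.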

[1] = Table III, read-out: EHMT1 PEP (IC50 μM)
[2] = Table III, read-out: EHMT2 PEP (IC50 μM)

SMILES | IC50 (EHMT1; [1]) [µM] | IC50 (human EHMT2 913-1193; [2]) [µM] | IC50 (EHMT1; Table VI, read-out: EHMT1 PEP IC50) [µM] | IC50 (human EHMT2 913-1193; Table VI, read-out: EHMT2 PEP IC50) [µM]
CNc1cc(C)nc(Nc2ccc(OC)c(O[C@H]3C[C@H](N(C)C)C3)c2)n1 (single isomer, unassigned) [Compound 329, N^2-(3-((1r,3r)-3-(dimethylamino)cyclobutoxy)-4-methoxyphenyl)-N^4,6-dimethylpyrimidine-2,4-diamine] | 1 to 10 | 1 to 10 | – | –
COc1ccc(Nc2ccc3cnn(C)c3n2)cc1OCCCN1CCCC1 [Compound 257, N-(4-methoxy-3-(3-(pyrrolidin-1-yl)propoxy)phenyl)-1-methyl-1H-pyrazolo[3,4-b]pyridin-6-amine] | > 10 | > 10 | – | –
COc1ccc(Nc2cc3c(cn2)ncn3C)cc1OCCCN1CCCC1 [Compound 258, N-(4-methoxy-3-(3-(pyrrolidin-1-yl)propoxy)phenyl)-1-methyl-1H-imidazo[4,5-c]pyridin-6-amine] | > 10 | > 10 | – | –
COc1ccc(Nc2nccc(NCC3CCOCC3)n2)cc1OC1CCC2(CC1)CCN(C)C2 (stereo not drawn) [Compound 259, N^2-(4-methoxy-3-((2-methyl-2-azaspiro[4.5]decan-8-yl)oxy)phenyl)-N^4-((tetrahydro-2H-pyran-4-yl)methyl)pyrimidine-2,4-diamine] | > 10 | > 10 | – | –
COc1ccc(Nc2nccc(NCC3CCOCC3)n2)cc1OC1CCC2(CC1)CN(C)C2 [Compound 260, N^2-(4-methoxy-3-((2-methyl-2-azaspiro[3.5]nonan-7-yl)oxy)phenyl)-N^4-((tetrahydro-2H-pyran-4-yl)methyl)pyrimidine-2,4-diamine] | > 10 | > 10 | – | –
CNc1cc(Nc2cc(OCCCN3CCCC3)c(OC)cn2)cnn1 [Compound 323, N^5-(5-methoxy-4-(3-(pyrrolidin-1-yl)propoxy)pyridin-2-yl)-N^3-methylpyridazine-3,5-diamine] | > 10 | > 10 | – | –
CNc1cc(C)nc(Nc2ccc(OC)c(O[C@H]3C[C@H](CN(C)C)C3)c2)n1 [Compound 331, N^2-(3-((1r,3r)-3-((dimethylamino)methyl)cyclobutoxy)-4-methoxyphenyl)-N^4,6-dimethylpyrimidine-2,4-diamine] | > 10 | > 10 | – | –
COc1ccc(Nc2nccc(-n3nc(C)cc3C)n2)cc1OCCCN1CCCC1 [Compound 338] | > 10 | > 10 | – | –
CNCc1cnc(Nc2ccc(OC)c(OCCCN3CCCC3)c2)nc1 [Compound 339] | > 10 | > 10 | – | –
COc1ccc(Nc2ccc3cnn(C)c3c2)cc1OCCCN1CCCC1 [Compound 341] | > 10 | > 10 | – | –
COc1ccc(Nc2ccc3ncn(C)c3n2)cc1OCCCN1CCCC1 [Compound 342] | > 10 | > 10 | – | –
COc1ccc(Nc2ncc3ncn(C)c3n2)cc1OCCCN1CCCC1 [Compound 343] | > 10 | > 10 | – | –
COc1ccc(Nc2cccc3ncnn23)cc1OCCCN1CCCC1 [Compound 344] | > 10 | > 10 | – | –
COc1ccc(Nc2ccc3nn(C)cc3c2)cc1OCCCN1CCCC1 [Compound 345] | > 10 | > 10 | – | –
COc1ccc(Nc2cccc3cn(C)nc23)cc1OCCCN1CCCC1 [Compound 346] | > 10 | > 10 | – | –
COc1ccc(Nc2ccc3ncc(C)n3n2)cc1OCCCN1CCCC1 [Compound 347] | 1 to 10 | 1 to 10 | – | –
COc1ccc(Nc2nccc(-c3cnn(C)c3)n2)cc1OCCCN1CCCC1 [Compound 348] | > 10 | > 10 | – | –
COc1ccc(Nc2nccc(Nc3cccc(F)c3)n2)cc1OCCCN1CCCC1 [Compound 349] | 1 to 10 | 1 to 10 | – | –
COc1ccc(OCCCN2CCCC2)cc1Nc1nccc(NCC2CCOCC2)n1 [Compound 351] | > 10 | > 10 | – | –
COc1ccc(NCCCN2CCCC2)cc1Nc1nccc(NCC2CCOCC2)n1 [Compound 352] | > 10 | > 10 | – | –
CNc1cc2nccn2c(Nc2cc(OCCCN3CCCC3)c(OC)cn2)n1 [Compound 611] | – | – | 1 to 10 | 1 to 10

Second part, the compound after the results:

IC50 (EHMT1; [1]) [µM] | IC50 (human EHMT2 913-1193; [2]) [µM] | IC50 (EHMT1; Table VI, read-out: EHMT1 PEP IC50) [µM] | IC50 (human EHMT2 913-1193; Table VI, read-out: EHMT2 PEP IC50) [µM] | SMILES
< 0.1 | < 0.1 | – | – | CNc1cnnc(Nc2cc(OCCCN3CCCC3)c(OC)cn2)c1 [Compound 322, N^3-(5-methoxy-4-(3-(pyrrolidin-1-yl)propoxy)pyridin-2-yl)-N^5-methylpyridazine-3,5-diamine]
1 to 10 | 1 to 10 | – | – | CNc1cc(Nc2cc(OCCCN3CCCC3)c(OC)cn2)ncn1 [Compound 324, N^4-(5-methoxy-4-(3-(pyrrolidin-1-yl)propoxy)pyridin-2-yl)-N^6-methylpyrimidine-4,6-diamine]
1 to 10 | 1 to 10 | – | – | CNc1cc(Nc2cc(OCCCN3CCCC3)c(OC)cn2)nc(C)n1 [Compound 325, N^4-(5-methoxy-4-(3-(pyrrolidin-1-yl)propoxy)pyridin-2-yl)-N^6,2-dimethylpyrimidine-4,6-diamine]
0.1 to 1 | 0.1 to 1 | – | – | COc1cnc(Nc2nc(C)nc3[nH]ccc23)cc1OCCCN1CCCC1 [Compound 326, N-(5-methoxy-4-(3-(pyrrolidin-1-yl)propoxy)pyridin-2-yl)-2-methyl-7H-pyrrolo[2,3-d]pyrimidin-4-amine]
0.1 to 1 | 0.1 to 1 | – | – | CNc1nc(Nc2ccc(OC)c(OCCCN3CCCC3)c2)nc2c1CCC2 [Compound 328, N^2-(4-methoxy-3-(3-(pyrrolidin-1-yl)propoxy)phenyl)-N^4-methyl-6,7-dihydro-5H-cyclopenta[d]pyrimidine-2,4-diamine]
1 to 10 | > 10 | – | – | CNc1cc(C)nc(Nc2ccc(OC)c(OC[C@H]3C[C@H](N(C)C)C3)c2)n1 [Compound 330]
< 0.1 | < 0.1 | – | – | CNc1cc(C)nc(Nc2cnc(OC)c(OCCCN3CCCC3)c2)n1 [Compound 332, N^2-(6-methoxy-5-(3-(pyrrolidin-1-yl)propoxy)pyridin-3-yl)-N^4,6-dimethylpyrimidine-2,4-diamine]
1 to 10 | 1 to 10 | – | – | CCn1nc(Nc2nccc3[nH]ccc23)cc1COCCN1CCCC1 [Compound 333]
0.1 to 1 | 0.1 to 1 | – | – | COc1cnc(Nc2ccnc3[nH]ccc23)cc1OCCCN1CCCC1 [Compound 335, N-(5-methoxy-4-(3-(pyrrolidin-1-yl)propoxy)pyridine-2-yl)-1H-pyrrolo[2,3-b]pyridin-4-amine]
0.1 to 1 | 0.1 to 1 | – | – | COc1cnc(Nc2cc(C)nc3[nH]ccc23)cc1OCCCN1CCCC1 [Compound 336, N-(5-methoxy-4-(3-(pyrrolidin-1-yl)propoxy)pyridin-2-yl)-6-methyl-1H-pyrrolo[2,3-b]pyridin-4-amine]
0.1 to 1 | 1 to 10 | – | – | COc1ccc(Nc2nc(C)c(F)c(NC(C)C)n2)cc1OCCCN1CCCC1 [Compound 337]
0.1 to 1 | 0.1 to 1 | – | – | COc1ccc(Nc2ccnc(NCC3CCN(C(C)=O)CC3)n2)cc1OCCCN1CCCC1 [Compound 340]
0.1 to 1 | 0.1 to 1 | – | – | COc1ccc(Nc2nccc(NCC3CCOCC3)n2)cc1NCCCN1CCCC1 [Compound 350]
0.1 to 1 | 0.1 to 1 | – | – | CNc1ccnc(Nc2ccc(OC)c(OCCCN3CC[C@@H](F)C3)c2)n1 [Compound 353]
0.1 to 1 | 1 to 10 | – | – | CNc1ccnc(Nc2ccc(OC)c(OCCCN3CC(F)C3)c2)n1 [Compound 354]
